Some targets named below: EGFR(S752-I759del) (Homo sapiens, UniProt P00533, DEL752-759); CLK1 (Homo sapiens, UniProt P49759); BMPR1B (Homo sapiens, UniProt O00238).
Test in all cases: biochemical
What all share (set-up): DiscoveRx KINOMEscan active site-directed competition binding; percent of control kinase bound to immobilised ligand

Another assay concerns the target T1, FLT3(ITD,D835V) (Homo sapiens, UniProt P36888, D835V/ITD).
T1 sequence (P36888 564-993 D835V): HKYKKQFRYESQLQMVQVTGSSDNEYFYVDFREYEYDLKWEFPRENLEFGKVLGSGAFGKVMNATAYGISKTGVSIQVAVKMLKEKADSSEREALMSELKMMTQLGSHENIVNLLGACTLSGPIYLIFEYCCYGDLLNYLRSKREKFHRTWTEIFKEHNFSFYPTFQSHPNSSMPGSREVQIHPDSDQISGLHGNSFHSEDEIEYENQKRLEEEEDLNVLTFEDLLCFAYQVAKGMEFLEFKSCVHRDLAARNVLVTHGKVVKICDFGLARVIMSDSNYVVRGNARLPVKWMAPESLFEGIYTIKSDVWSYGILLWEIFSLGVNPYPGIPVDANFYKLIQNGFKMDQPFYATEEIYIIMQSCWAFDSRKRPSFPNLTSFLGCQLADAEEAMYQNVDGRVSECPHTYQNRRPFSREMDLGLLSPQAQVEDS

For assay [1], the target named is EGFR(L747-S752del, P753S) (Homo sapiens, UniProt P00533, DEL747-752/P753S).
Assay [2] concerns the target T2, RPS6KA4(Kin.Dom.2-C-terminal) (Homo sapiens, UniProt O75676).
T2 construct: Kin.Dom.2-C-terminal

The next assay has as its target T3, DLK (Homo sapiens, UniProt Q12852).
T3 construct: gene MAP3K12
T3 sequence (Q12852 1-859): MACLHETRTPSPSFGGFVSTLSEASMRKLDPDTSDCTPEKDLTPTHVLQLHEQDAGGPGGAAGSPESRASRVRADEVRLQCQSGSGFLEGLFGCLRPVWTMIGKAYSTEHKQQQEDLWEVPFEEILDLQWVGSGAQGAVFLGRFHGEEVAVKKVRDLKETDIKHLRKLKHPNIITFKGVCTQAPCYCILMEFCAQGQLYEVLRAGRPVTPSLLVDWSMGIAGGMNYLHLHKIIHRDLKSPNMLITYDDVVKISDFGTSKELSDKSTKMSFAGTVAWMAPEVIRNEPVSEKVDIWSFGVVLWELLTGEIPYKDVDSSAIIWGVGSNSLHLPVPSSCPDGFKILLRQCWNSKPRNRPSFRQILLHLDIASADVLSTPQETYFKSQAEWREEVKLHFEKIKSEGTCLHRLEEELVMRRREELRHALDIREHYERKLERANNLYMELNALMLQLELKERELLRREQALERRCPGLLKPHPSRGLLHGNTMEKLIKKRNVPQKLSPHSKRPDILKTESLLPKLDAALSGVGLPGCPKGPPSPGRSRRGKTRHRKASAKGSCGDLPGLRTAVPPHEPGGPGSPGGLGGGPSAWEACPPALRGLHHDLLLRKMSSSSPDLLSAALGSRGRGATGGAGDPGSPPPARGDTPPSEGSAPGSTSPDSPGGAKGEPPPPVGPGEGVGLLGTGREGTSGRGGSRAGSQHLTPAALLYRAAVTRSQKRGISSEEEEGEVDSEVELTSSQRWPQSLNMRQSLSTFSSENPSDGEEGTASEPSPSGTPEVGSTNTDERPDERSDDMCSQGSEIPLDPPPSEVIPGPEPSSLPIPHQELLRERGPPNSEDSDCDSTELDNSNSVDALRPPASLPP

Another assay deals with T4, NEK5 (Homo sapiens, UniProt Q6P3R8).
T4 sequence (Q6P3R8 1-708): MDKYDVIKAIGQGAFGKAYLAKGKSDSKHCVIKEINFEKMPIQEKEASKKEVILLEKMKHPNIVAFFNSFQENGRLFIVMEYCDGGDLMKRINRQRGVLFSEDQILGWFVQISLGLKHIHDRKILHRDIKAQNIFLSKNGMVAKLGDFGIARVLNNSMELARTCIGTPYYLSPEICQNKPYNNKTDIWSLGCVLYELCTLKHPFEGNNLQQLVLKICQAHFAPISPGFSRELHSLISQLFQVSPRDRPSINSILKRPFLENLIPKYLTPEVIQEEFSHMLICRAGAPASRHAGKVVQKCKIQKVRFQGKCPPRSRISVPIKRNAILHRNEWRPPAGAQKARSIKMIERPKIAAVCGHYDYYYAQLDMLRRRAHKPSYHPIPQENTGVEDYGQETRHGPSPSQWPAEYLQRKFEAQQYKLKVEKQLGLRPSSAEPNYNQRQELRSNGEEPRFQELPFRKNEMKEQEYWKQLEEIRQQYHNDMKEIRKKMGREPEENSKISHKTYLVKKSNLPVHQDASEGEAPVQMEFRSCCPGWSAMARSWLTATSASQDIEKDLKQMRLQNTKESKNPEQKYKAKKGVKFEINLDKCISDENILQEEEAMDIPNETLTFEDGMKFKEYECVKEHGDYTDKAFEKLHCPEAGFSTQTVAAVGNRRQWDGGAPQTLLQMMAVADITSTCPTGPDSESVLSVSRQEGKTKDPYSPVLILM

The target in a further assay is T5, OSR1 (Homo sapiens, UniProt O95747).
T5 construct: gene OXSR1

Where [3] appears, read: read-out: Niraparib (MK-4827) / %Ctrl @ 10000nM.
Where [4] appears, read: read-out: Olaparib / %Ctrl @ 10000nM.
The mark [5] stands for this setting: read-out: Rucaparib / %Ctrl @ 10000nM, binding competition, % of control.
Where [6] appears, read: read-out: Talazoparib (BMN 673) / %Ctrl @ 10000nM.

Like-named read-outs stand apart in the source and are kept apart here.

Sequence of CLK1 (P49759 whole entry): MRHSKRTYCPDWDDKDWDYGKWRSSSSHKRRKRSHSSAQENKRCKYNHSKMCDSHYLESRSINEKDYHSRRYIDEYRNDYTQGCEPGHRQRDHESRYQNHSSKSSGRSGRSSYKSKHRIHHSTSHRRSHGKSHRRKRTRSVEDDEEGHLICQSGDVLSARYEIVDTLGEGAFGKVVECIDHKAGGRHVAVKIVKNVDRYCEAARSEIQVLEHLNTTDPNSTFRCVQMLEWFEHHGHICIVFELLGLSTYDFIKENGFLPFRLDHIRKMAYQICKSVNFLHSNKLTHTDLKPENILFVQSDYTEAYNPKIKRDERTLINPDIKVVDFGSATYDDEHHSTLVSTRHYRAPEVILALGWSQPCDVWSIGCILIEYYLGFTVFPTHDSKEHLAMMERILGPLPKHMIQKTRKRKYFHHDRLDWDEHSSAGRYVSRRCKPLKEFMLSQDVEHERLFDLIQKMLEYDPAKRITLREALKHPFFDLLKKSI
Sequence of EGFR(L747-S752del, P753S) (P00533 with tags, fused parts or gaps DEL747-752/P753S): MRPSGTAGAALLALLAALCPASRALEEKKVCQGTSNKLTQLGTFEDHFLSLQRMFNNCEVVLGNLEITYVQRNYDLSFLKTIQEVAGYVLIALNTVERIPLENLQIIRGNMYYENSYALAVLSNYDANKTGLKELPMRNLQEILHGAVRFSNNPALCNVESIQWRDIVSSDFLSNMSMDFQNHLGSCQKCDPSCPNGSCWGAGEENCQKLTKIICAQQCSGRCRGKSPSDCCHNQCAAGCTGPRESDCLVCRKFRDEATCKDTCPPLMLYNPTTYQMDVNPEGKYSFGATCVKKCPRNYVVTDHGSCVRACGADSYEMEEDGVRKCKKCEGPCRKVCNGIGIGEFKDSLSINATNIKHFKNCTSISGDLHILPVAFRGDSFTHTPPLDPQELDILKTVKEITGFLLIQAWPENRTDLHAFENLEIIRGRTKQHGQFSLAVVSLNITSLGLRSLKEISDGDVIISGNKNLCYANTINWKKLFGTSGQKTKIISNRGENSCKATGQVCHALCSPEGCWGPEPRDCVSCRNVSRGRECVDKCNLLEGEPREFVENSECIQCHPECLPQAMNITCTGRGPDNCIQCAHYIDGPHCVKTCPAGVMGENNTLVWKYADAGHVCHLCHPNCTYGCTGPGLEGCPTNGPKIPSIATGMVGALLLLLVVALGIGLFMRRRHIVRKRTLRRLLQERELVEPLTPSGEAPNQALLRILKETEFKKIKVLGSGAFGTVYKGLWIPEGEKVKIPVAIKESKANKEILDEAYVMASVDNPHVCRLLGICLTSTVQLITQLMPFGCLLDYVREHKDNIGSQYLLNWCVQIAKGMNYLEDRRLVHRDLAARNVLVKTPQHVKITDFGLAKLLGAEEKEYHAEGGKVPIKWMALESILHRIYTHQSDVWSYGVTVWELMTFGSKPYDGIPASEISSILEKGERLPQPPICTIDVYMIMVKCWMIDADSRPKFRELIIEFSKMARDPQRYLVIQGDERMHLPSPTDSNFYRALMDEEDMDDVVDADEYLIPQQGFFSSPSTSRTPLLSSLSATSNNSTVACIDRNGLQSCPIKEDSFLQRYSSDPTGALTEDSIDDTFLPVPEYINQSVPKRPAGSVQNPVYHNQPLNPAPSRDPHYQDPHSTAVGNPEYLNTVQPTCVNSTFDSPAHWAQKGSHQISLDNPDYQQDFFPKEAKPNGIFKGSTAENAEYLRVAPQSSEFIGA
Sequence of EGFR(S752-I759del) (P00533 with tags, fused parts or gaps DEL752-759): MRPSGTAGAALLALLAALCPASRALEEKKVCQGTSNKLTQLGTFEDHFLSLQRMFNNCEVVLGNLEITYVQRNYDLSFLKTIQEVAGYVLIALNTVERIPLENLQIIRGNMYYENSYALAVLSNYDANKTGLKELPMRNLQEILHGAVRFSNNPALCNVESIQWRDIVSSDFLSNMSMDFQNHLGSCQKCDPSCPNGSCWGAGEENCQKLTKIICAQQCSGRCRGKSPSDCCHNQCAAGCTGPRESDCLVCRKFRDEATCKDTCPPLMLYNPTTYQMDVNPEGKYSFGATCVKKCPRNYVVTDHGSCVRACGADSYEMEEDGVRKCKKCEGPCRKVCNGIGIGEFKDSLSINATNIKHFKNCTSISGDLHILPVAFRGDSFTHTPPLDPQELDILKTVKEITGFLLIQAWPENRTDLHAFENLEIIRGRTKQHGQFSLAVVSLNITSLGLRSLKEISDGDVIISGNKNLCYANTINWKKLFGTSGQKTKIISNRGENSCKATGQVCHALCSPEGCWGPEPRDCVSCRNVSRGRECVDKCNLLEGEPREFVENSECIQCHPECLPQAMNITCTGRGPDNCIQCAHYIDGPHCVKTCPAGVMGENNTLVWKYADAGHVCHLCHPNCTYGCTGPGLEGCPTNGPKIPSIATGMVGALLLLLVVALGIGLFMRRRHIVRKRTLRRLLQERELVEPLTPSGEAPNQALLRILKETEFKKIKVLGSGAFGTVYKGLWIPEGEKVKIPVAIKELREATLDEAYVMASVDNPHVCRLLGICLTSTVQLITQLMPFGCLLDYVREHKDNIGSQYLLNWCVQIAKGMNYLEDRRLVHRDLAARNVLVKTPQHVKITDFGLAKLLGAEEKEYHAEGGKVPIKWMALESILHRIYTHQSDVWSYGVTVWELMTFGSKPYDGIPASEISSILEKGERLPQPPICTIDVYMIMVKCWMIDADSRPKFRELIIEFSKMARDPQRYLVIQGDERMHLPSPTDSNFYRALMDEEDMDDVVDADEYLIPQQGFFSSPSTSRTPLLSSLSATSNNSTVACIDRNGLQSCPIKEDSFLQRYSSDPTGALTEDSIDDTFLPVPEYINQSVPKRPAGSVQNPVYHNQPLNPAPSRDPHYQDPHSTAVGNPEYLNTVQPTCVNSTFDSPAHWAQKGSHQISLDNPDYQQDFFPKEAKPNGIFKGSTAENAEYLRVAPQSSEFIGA
Sequence of BMPR1B (O00238 whole entry): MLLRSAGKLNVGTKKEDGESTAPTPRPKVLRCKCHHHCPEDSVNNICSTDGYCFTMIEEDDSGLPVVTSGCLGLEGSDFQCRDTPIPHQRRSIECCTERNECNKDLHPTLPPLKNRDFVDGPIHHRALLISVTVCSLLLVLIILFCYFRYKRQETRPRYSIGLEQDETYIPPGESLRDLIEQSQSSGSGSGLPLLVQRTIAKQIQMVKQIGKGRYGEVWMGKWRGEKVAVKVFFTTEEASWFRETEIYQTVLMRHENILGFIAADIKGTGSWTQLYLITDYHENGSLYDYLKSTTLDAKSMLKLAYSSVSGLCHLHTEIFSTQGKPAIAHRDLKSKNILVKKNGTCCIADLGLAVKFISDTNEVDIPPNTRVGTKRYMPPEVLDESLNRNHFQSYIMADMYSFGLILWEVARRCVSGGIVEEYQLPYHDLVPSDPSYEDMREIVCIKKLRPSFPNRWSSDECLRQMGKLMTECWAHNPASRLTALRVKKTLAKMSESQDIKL
T5 sequence (O95747 whole entry): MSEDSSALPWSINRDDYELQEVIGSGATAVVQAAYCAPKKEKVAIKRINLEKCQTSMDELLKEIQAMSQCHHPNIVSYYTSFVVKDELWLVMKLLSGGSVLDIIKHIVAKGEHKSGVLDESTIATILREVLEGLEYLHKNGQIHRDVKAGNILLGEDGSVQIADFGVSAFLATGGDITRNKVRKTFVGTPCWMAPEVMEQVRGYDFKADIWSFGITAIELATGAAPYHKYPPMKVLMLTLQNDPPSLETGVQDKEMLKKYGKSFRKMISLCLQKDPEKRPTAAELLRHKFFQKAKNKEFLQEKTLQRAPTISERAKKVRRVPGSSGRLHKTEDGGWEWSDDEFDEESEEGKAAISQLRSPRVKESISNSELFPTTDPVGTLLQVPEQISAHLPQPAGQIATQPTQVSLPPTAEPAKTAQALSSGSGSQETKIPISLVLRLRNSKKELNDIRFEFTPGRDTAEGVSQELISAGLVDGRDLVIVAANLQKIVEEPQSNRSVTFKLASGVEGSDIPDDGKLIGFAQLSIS
T2 sequence (O75676 whole entry): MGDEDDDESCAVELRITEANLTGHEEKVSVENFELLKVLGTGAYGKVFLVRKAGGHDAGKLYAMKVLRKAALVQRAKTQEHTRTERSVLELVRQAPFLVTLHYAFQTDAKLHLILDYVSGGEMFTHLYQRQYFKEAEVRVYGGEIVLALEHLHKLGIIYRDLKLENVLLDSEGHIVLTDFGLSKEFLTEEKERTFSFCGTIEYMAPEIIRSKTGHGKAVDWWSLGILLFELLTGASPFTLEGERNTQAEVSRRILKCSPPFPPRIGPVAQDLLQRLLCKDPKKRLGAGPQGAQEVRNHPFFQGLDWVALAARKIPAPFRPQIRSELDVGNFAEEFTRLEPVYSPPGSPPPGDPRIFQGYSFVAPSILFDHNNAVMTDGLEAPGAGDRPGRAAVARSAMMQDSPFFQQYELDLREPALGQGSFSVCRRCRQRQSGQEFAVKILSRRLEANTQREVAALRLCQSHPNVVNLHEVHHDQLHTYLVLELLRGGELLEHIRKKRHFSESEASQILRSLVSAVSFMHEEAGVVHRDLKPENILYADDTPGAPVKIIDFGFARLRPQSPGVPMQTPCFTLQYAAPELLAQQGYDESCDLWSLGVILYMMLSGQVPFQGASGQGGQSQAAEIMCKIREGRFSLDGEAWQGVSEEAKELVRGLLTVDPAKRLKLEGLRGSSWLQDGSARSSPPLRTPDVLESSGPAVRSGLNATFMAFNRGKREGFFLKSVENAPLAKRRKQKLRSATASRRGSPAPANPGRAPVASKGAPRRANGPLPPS

With `NC(=O)c1cccc2cn(-c3ccc([C@@H]4CCCNC4)cc3)nc12` [Niraparib], the percent of control binding at 10 µM on EGFR(S752-I759del) (setting [3]) is 71%; at FLT3(ITD,D835V) (setting [3]) it was 36%; in assay [1] (setting [3]) it was 93%; in [2] (setting [3]) it was 80%; at CLK1 (setting [3]), 48%; at DLK (setting [3]), 100%. The results for the percent of control binding at 10 µM at BMPR1B (setting [3]), at NEK5 (setting [3]) and at OSR1 (setting [3]) were 87%, 89% and 98%, respectively.

Take `O=C(c1cc(Cc2n[nH]c(=O)c3ccccc23)ccc1F)N1CCN(C(=O)C2CC2)CC1` [Olaparib]: the percent of control binding at 10 µM on EGFR(S752-I759del) (setting [4]) was 84%; on FLT3(ITD,D835V) (setting [4]), 100%; in assay [1] (setting [4]) it was 100%; in [2] (setting [4]), 92%; at CLK1 (setting [4]), 99%; at DLK (setting [4]) it was 96%. Besides, the figures for the percent of control binding at 10 µM on BMPR1B (setting [4]), on NEK5 (setting [4]) and at OSR1 (setting [4]) were 81%, 96% and 88%, respectively.

Consider `CNCc1ccc(-c2[nH]c3cc(F)cc4c3c2CCNC4=O)cc1` [Rucaparib], for which the percent of control binding at 10 µM on EGFR(S752-I759del) (setting [5]) amounted to 89%; in [1] (setting [5]), 100%; in assay [2] (setting [5]), 91%; on CLK1 (setting [5]), 37%; at DLK (setting [5]) it was 91%; on BMPR1B (setting [5]), 80%. The figures for the percent of control binding at 10 µM on NEK5 (setting [5]) and at OSR1 (setting [5]) were 87% and 71%, respectively. In addition, the “Rucaparib / %Ctrl @ 10000nM” value at FLT3(ITD,D835V) (binding competition, % of control) was 8.1%.

On to `Cn1ncnc1[C@H]1c2n[nH]c(=O)c3cc(F)cc(c23)N[C@@H]1c1ccc(F)cc1` [Talazoparib], for which the percent of control binding at 10 µM on EGFR(S752-I759del) (setting [6]) amounted to 100%; at FLT3(ITD,D835V) (setting [6]), 100%; in assay [1] (setting [6]), 98%; in assay [2] (setting [6]), 100%; at CLK1 (setting [6]), 86%; on DLK (setting [6]), 100%. For the same molecule, the percent of control binding at 10 µM on BMPR1B (setting [6]) turned out to be 100%; at NEK5 (setting [6]), 97%; on OSR1 (setting [6]), 90%.

Source of the values: publication PMC7026418, “The kinase polypharmacology landscape of clinical PARP inhibitors” (Scientific Reports, 2020).
